Assay results from patent US20200405793A1, “USE OF […] PATHWAY INHIBITOR AND […] PREPARING ANTI-TUMOR DRUG” (GUANGZHOU VIROTECH PHARMACEUTICAL CO., LTD., priority 2017, published 2020).
Entries after “also recorded” stand apart in the source; their conditions may differ.

Tests used:
alphavirus M1 = experiment: Mevalonate pathway inhibiting compounds acting on tumor cells with M1 virus: virus replication; type: cell-based
HCT-116 cells [1] = experiment: MTT cell viability, Tipifarnib and M1 virus; type: cell-based, human; conditions: Tipifarnib 50 nM, M1 virus MOI=1, 48 h
Description: (§1) Each group of experiments was repeated 3 times.

SW1990 cells = experiment: MTT cell viability, Tipifarnib and M1 virus; type: cell-based, human; conditions: Tipifarnib 50 nM, M1 virus MOI=1, 48 h
Description: as §1

[2] = test system: HCT-116 or SW 1990 transplanted tumors; experiment: Growth of subcutaneous transplanted tumors in nude mice; type: in vivo, BALB/c nude mice; conditions: Tipifarnib 500 μg/kg/d i.p.; M1 2×10^9 PFU/kg/d tail vein; 6 consecutive injections; vs control group; both tumor models
Description: This experiment used a randomized, single-blind design. 5×10^6 HCT-116 or SW 1990 cells were injected subcutaneously into the dorsal flank of the 4 week old BALB/c nude mouse.
When the tumor size reached 50 mm3, the mice were divided into […], including untreated control group, Tipifarnib alone group (500 μg/kg/d by intraperitoneal injection), M1 infection alone group (2×10^9 PFU/kg/d by tail vein injection of M1 virus) and Tipifarnib/M1 combined group (same dose of Tipifarnib and M1 virus), and treated with 6 consecutive injections. The length, width and weight of the tumor were measured every two days, and the volume of the tumor was measured according to the formula (length×width^2)/2. One way ANOVA was performed after measuring tumor volume, ***indicates p<0.001.

HCT-116 cells [3] = experiment: Cell morphology after fluvastatin and M1 virus treatment; type: cell-based, human; conditions: fluvastatin 2 μM, M1 virus MOI=1, 48 hours
Description: (§2) a) Cell culture: human intestinal cell carcinoma strain HCT-116 was grown in a DMEM complete medium containing 10% FBS, 100 U/ml penicillin and 0.1 mg/ml streptomycin; all cell strains were cultured in a constant temperature closed incubator at 5% CO2, 37° C. (95% RH) and observed by the inverted microscope. Cells were passaged once for approximately 2-3 days and the cells in logarithmic growth phase were used for formal experiments.
c) Cells were inoculated into a 24-well plate at 30,000 cells/well; after the cells were treated with fluvastatin 2 (μM), they were infected with M1 virus (MOI=1); and the changes of cell morphology were observed under the inverted phase contrast microscope after 48 hours.

[4] = test system: M1 viral proteins (structural protein E1 and non-structural protein NS3); experiment: Immunoblot of M1 viral proteins after statin treatment of M1-infected HCT-116 cells; type: cell-based, M1 virus; conditions: concentration not given
Description: as §2
Cells were infected with M1 virus (MOI=1), treated with M1 virus (MOI=1) combined with fluvastatin or atorvastatin (1 and 10 μM), and cellular proteins were harvested after 24 hours and immunoblotted.

[5] = test system: HCT-116, Capan-1 and SW 1990 cells; experiment: Cell morphology under inverted phase contrast microscope after siRNA interference of HMGCR and M1 virus infection; type: cell-based, human; conditions: HCT-116, Capan-1, SW 1990; siRNA 25 nM; M1 virus 1 MOI; 48 h after infection
Description: (§3) The cells were inoculated into a 35 mm culture dish, cultured until the confluence degree of the cells reaches 60% and subjected to the following interference treatment: firstly, a Lipofectamine RNAiMAX solution was prepared with Opti-MEM by diluting according to 2 μL: 198 μL per culture dish and uniformly mixing; secondly, an siRNA solution was prepared with Opti-MEM by diluting according to 1.8 μL: 198 μL per culture dish, wherein the final concentration of siRNA was 25 nM, and mixing gently; finally, the diluted Lipofectamine RNAiMAX and siRNA were mixed, and stood for 15 minutes at room temperature; the mixed solution was added into a culture dish containing 1.5 mL of serum-free culture medium; and the medium was changed to a complete medium after 24 hours, and infected with M1 virus (1MOI). The changes in cell morphology were observed after 48 h under the inverted phase contrast microscope.

[6] = test system: M1 virus structural protein E1 and nonstructural protein NS3; experiment: Immunoblot of M1 viral proteins after siRNA interference of mevalonate pathway genes; type: cell-based; conditions: HCT-116; siRNA HMGCR, SQLE, FNTB, PGGT1B, RABGGTB 25, 25, 4, 20, 20 nM; M1 1 MOI; 24 hours
Description: as §3, with “interfering HMGCR, SQLE, FNTB, PGGT 1B and RABGGTB (specifically see FIG. 9 and the description of the Figures) were 25, 25, 4, 20 and 20 nM respectively,” for “was 25 nM,”, “Cell lysates” for “The changes in cell morphology”, “collected” for “observed”, “24 hours and immunoblotted.” for “48 h under the inverted phase contrast microscope.”

## COC(=O)[C@H](CCSC)NC(=O)c1ccc(NC[C@@H](N)CS)cc1-c1ccccc1.O=C(O)C(F)(F)F [FTI277]
Alphavirus M1
  replication of the alphavirus M1: promote replication of the alphavirus Ml

## Cn1cncc1[C@@](N)(c1ccc(Cl)cc1)c1ccc2c(c1)c(-c1cccc(Cl)c1)cc(=O)n2C [Tipifarnib]
HCT-116 cells [1]
  tumor cell survival rate: 80%
SW1990 cells
  tumor cell survival rate: 90%
[2]
  tumor volume: only a slight reduction in tumor volume
Alphavirus M1
  replication of the alphavirus M1: promote replication of the alphavirus Ml

## CC(C)n1c(/C=C/[C@@H](O)C[C@@H](O)CC(=O)[O-])c(-c2ccc(F)cc2)c2ccccc21.[Na+] [fluvastatin]
HCT-116 cells [3]
  changes of cell morphology: induced lesions in a small number of cells
[4]
  expression of M1 virus protein: significantly increase the protein expression of M1 virus; also recorded: promote the expression of M1 virus protein
Alphavirus M1
  replication of the alphavirus M1: promote replication of the alphavirus Ml

## AACCCAAUGCCCAUGUUCCdTdT (as printed in the source, key not given here) [siRNA targeting HMGCR, siRNA interfering the HMG-CoA reductase gene (HMGCR)]
[5]
  changes in cell morphology: did not affect the morphology of tumor cells
[6]
  expression of structural protein E1 and nonstructural protein NS3 of the virus: increased significantly; also recorded: significantly increase the protein expression of M1 virus

## atorvastatin
[4]
  expression of M1 virus protein: significantly increase the protein expression of M1 virus; also recorded: promote the expression of M1 virus protein
Alphavirus M1
  replication of the alphavirus M1: promote replication of the alphavirus Ml
